Measurements reported in ChEMBL document CHEMBL2073911, “Sensitivity of bile acid transport by organic anion-transporting polypeptides to intracellular pH” (Biochim Biophys Acta, 2003).

Molecular target: T1, Solute carrier organic anion transporter family member 1A1 (Rattus norvegicus, UniProt P46720)
T1 sequence (P46720 whole entry): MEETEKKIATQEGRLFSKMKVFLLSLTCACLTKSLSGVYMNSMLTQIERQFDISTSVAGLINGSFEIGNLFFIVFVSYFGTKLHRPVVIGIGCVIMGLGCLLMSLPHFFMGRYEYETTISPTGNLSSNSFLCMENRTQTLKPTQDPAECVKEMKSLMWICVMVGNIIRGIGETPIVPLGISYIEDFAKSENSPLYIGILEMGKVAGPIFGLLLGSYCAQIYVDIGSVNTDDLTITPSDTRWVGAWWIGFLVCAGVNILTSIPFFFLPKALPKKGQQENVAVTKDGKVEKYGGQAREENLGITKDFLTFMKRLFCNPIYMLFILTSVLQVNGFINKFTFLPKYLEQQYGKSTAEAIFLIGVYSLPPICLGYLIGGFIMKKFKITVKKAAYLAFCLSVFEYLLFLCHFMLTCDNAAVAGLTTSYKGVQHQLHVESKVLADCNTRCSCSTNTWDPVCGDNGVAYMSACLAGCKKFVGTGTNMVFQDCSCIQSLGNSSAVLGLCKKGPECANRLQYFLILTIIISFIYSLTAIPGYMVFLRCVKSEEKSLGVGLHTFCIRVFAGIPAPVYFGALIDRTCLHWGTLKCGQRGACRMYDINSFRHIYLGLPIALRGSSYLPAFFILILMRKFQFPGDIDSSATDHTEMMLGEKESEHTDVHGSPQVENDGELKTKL
Assay: TP_TRANSPORTER: uptake in Oatp1-expressing CHO-03 cell
Assay type: functional, cell-based
Settings: hamster

Activity: substrate [+]
SMILES: C[C@H](CCC(=O)NCC(=O)O)[C@H]1CC[C@H]2[C@@H]3[C@H](O)C[C@@H]4C[C@H](O)CC[C@]4(C)[C@H]3C[C@H](O)[C@]12C [GLYCOCHOLIC ACID]
